Source: PubChem BioAssay (NCI)
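Grown in 96-well plates, cells were treated for 48 hours with each compound at five concentrations. Insufficient inhibition: endpoint recorded as highest concentration tested. GI50 marks 50% less growth. TGI denotes the concentration required for complete inhibition of growth.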

Experiments:
Test in all cases: NCI-60 cell line screen, 48 h
786-0 renal = test system: 786-0 renal
A498 renal = test system: A498 renal
A549 NSCLC = test system: A549 NSCLC
ACHN renal = test system: ACHN renal
BT-549 breast = test system: BT-549 breast
CAKI-1 renal = test system: CAKI-1 renal
CCRF-CEM leukemia = test system: CCRF-CEM leukemia
COLO 205 colon = test system: COLO 205 colon
DU-145 prostate = test system: DU-145 prostate
HCC-2998 colon = test system: HCC-2998 colon
HCT-15 colon = test system: HCT-15 colon
HL-60(TB) leukemia = test system: HL-60(TB) leukemia
HOP-62 NSCLC = test system: HOP-62 NSCLC
HS 578T breast = test system: HS 578T breast
HT29 colon = test system: HT29 colon
IGROV1 ovarian = test system: IGROV1 ovarian
KM12 colon = test system: KM12 colon
M14 melanoma = test system: M14 melanoma
MALME-3M melanoma = test system: MALME-3M melanoma
MCF7 breast = test system: MCF7 breast
MDA-MB-231 breast = test system: MDA-MB-231 breast
MDA-MB-435 = test system: MDA-MB-435
MOLT-4 leukemia = test system: MOLT-4 leukemia
NCI-H226 lung = test system: NCI-H226 lung
NCI-H23 lung = test system: NCI-H23 lung
NCI-H460 lung = test system: NCI-H460 lung
NCI-H522 lung = test system: NCI-H522 lung
NCI/ADR-RES ovarian = test system: NCI/ADR-RES ovarian
OVCAR-3 ovarian = test system: OVCAR-3 ovarian
OVCAR-4 ovarian = test system: OVCAR-4 ovarian
OVCAR-5 ovarian = test system: OVCAR-5 ovarian
OVCAR-8 ovarian = test system: OVCAR-8 ovarian
PC-3 prostate = test system: PC-3 prostate
RPMI-8226 leukemia = test system: RPMI-8226 leukemia
RXF 393 renal = test system: RXF 393 renal
SF-268 CNS = test system: SF-268 CNS
SF-295 CNS = test system: SF-295 CNS
SF-539 CNS = test system: SF-539 CNS
SK-MEL-28 melanoma = test system: SK-MEL-28 melanoma
SK-MEL-5 melanoma = test system: SK-MEL-5 melanoma
SK-OV-3 ovarian = test system: SK-OV-3 ovarian
SN12C renal = test system: SN12C renal
SNB-19 CNS = test system: SNB-19 CNS
SNB-75 CNS = test system: SNB-75 CNS
SR leukemia = test system: SR leukemia
SW-620 colon = test system: SW-620 colon
T-47D breast = test system: T-47D breast
TK-10 renal = test system: TK-10 renal
U251 CNS = test system: U251 CNS
UACC-257 melanoma = test system: UACC-257 melanoma
UACC-62 melanoma = test system: UACC-62 melanoma
UO-31 renal = test system: UO-31 renal
HCT-116 colon = test system: HCT-116 colon
HOP-92 NSCLC = test system: HOP-92 NSCLC
K-562 leukemia = test system: K-562 leukemia
LOX IMVI melanoma = test system: LOX IMVI melanoma
SK-MEL-2 melanoma = test system: SK-MEL-2 melanoma

## O=C(/C=C/c1ccc(Cl)cc1)/C=C/c1cc2ccccc2[nH]c1=O
786-0 renal
  GI50: 2.02 µM
  TGI: 4.16 µM
A498 renal
  GI50: 5.87 µM
  TGI: 18.8 µM
A549 NSCLC
  GI50: 3.16 µM
  TGI: 48.9 µM
ACHN renal
  GI50: 4.96 µM
  TGI: 20.3 µM
BT-549 breast
  GI50: 3.29 µM
  TGI: 11.7 µM
CAKI-1 renal
  GI50: 4.38 µM
  TGI: 21.8 µM
CCRF-CEM leukemia
  GI50: 3.09 µM
  TGI: 9.74 µM
COLO 205 colon
  GI50: 3.65 µM
  TGI: 11.7 µM
DU-145 prostate
  GI50: 3.52 µM
  TGI: 11.7 µM
HCC-2998 colon
  GI50: 2.02 µM
  TGI: 3.62 µM
HCT-15 colon
  GI50: 2.85 µM
  TGI: 14.6 µM
HL-60(TB) leukemia
  GI50: 2.83 µM
  TGI: 8.39 µM
HOP-62 NSCLC
  GI50: 8.21 µM
  TGI: 26 µM
HS 578T breast
  GI50: 4.14 µM
  TGI: 66.6 µM
HT29 colon
  GI50: 2.5 µM
  TGI: 6.33 µM
IGROV1 ovarian
  GI50: 2.34 µM
  TGI: 5.5 µM
KM12 colon
  GI50: 3.11 µM
  TGI: 10.3 µM
M14 melanoma
  GI50: 3.11 µM
  TGI: 13.4 µM
MALME-3M melanoma
  GI50: 7.63 µM
  TGI: 38.4 µM
MCF7 breast
  GI50: 0.923 µM
  TGI: 8.45 µM
MDA-MB-231 breast
  GI50: 2.64 µM
  TGI: 7.82 µM
MDA-MB-435
  GI50: 2.34 µM
  TGI: 5.63 µM
MOLT-4 leukemia
  GI50: 3.82 µM
  TGI: 13.8 µM
NCI-H226 lung
  GI50: 2.59 µM
  TGI: 11.4 µM
NCI-H23 lung
  GI50: 4.76 µM
  TGI: 23.5 µM
NCI-H460 lung
  GI50: 8.52 µM
  TGI: 28.9 µM
NCI-H522 lung
  GI50: 1.91 µM
  TGI: 5.4 µM
NCI/ADR-RES ovarian
  GI50: 16.8 µM
  TGI: > 100 µM
OVCAR-3 ovarian
  GI50: 2.07 µM
  TGI: 4.5 µM
OVCAR-4 ovarian
  GI50: 5.06 µM
  TGI: 74.3 µM
OVCAR-5 ovarian
  GI50: 4.65 µM
  TGI: 19.6 µM
OVCAR-8 ovarian
  GI50: 3.03 µM
  TGI: 12.9 µM
PC-3 prostate
  GI50: 2.91 µM
  TGI: 13.7 µM
RPMI-8226 leukemia
  GI50: 1.29 µM
  TGI: 4.65 µM
RXF 393 renal
  GI50: 2.81 µM
  TGI: 8.88 µM
SF-268 CNS
  GI50: 3.61 µM
  TGI: 16 µM
SF-295 CNS
  GI50: 3.48 µM
  TGI: 13.2 µM
SF-539 CNS
  GI50: 2.88 µM
  TGI: 9.37 µM
SK-MEL-28 melanoma
  GI50: 10 µM
  TGI: 26.2 µM
SK-MEL-5 melanoma
  GI50: 10.1 µM
  TGI: 25.2 µM
SK-OV-3 ovarian
  GI50: 12.2 µM
  TGI: 32.7 µM
SN12C renal
  GI50: 3.67 µM
  TGI: 17.4 µM
SNB-19 CNS
  GI50: 11.3 µM
  TGI: 24.7 µM
SNB-75 CNS
  GI50: 5.79 µM
  TGI: 24.7 µM
SR leukemia
  GI50: 2.42 µM
  TGI: 8.19 µM
SW-620 colon
  GI50: 2.31 µM
  TGI: 5.82 µM
T-47D breast
  GI50: 3.46 µM
  TGI: 22.7 µM
TK-10 renal
  GI50: 12.3 µM
  TGI: 31.8 µM
U251 CNS
  GI50: 1.81 µM
  TGI: 3.68 µM
UACC-257 melanoma
  GI50: 5.2 µM
  TGI: 19.6 µM
UACC-62 melanoma
  GI50: 2.8 µM
  TGI: 10.5 µM
UO-31 renal
  GI50: 4.28 µM
  TGI: 20 µM

## O=C(Nc1ccc(CN2CCOCC2)cc1)c1ccc(-c2cc(Cl)ccc2Cl)o1
786-0 renal
  GI50: 11.8 µM
  TGI: 26.1 µM
A498 renal
  GI50: 10 µM
  TGI: 22.1 µM
A549 NSCLC
  GI50: 7.48 µM
  TGI: 32.4 µM
ACHN renal
  GI50: 18.4 µM
  TGI: 97.9 µM
BT-549 breast
  GI50: 7.79 µM
  TGI: 43.1 µM
CAKI-1 renal
  GI50: 13 µM
  TGI: 56.4 µM
CCRF-CEM leukemia
  GI50: 6.02 µM
  TGI: 49.1 µM
COLO 205 colon
  GI50: 2.24 µM
  TGI: 4.19 µM
DU-145 prostate
  GI50: 18 µM
  TGI: 63.3 µM
HCC-2998 colon
  GI50: 9.29 µM
  TGI: 23 µM
HCT-116 colon
  GI50: 5.92 µM
  TGI: 21.4 µM
HCT-15 colon
  GI50: 3.29 µM
  TGI: 34.4 µM
HL-60(TB) leukemia
  GI50: 4.45 µM
  TGI: 20.9 µM
HOP-62 NSCLC
  GI50: 15.5 µM
  TGI: 38.5 µM
HOP-92 NSCLC
  GI50: 10.2 µM
  TGI: 33.7 µM
HS 578T breast
  GI50: 12.5 µM
  TGI: 34.4 µM
HT29 colon
  GI50: 2.96 µM
  TGI: 12 µM
IGROV1 ovarian
  GI50: 23.5 µM
  TGI: 61.6 µM
K-562 leukemia
  GI50: 2 µM
  TGI: 6.09 µM
KM12 colon
  GI50: 4.41 µM
  TGI: 16.3 µM
LOX IMVI melanoma
  GI50: 2.65 µM
  TGI: 13 µM
M14 melanoma
  GI50: 11.1 µM
  TGI: 32.4 µM
MALME-3M melanoma
  GI50: 8.74 µM
  TGI: 29.2 µM
MCF7 breast
  GI50: 9.98 µM
  TGI: 26.3 µM
MDA-MB-231 breast
  GI50: 10.7 µM
  TGI: 29.5 µM
MDA-MB-435
  GI50: 11.6 µM
  TGI: 29.2 µM
MOLT-4 leukemia
  GI50: 4.34 µM
  TGI: 20.5 µM
NCI-H226 lung
  GI50: 12.2 µM
  TGI: 33.6 µM
NCI-H23 lung
  GI50: 12.8 µM
  TGI: 31.8 µM
NCI-H460 lung
  GI50: 3.54 µM
  TGI: 12.4 µM
NCI-H522 lung
  GI50: 10.2 µM
  TGI: 26.6 µM
NCI/ADR-RES ovarian
  GI50: 17.4 µM
  TGI: > 100 µM
OVCAR-3 ovarian
  GI50: 15.3 µM
  TGI: 39.2 µM
OVCAR-4 ovarian
  GI50: 17.6 µM
  TGI: 67.1 µM
OVCAR-5 ovarian
  GI50: 15.7 µM
  TGI: 61.1 µM
OVCAR-8 ovarian
  GI50: 11.4 µM
  TGI: 51.3 µM
PC-3 prostate
  GI50: 8.63 µM
  TGI: 36.4 µM
RPMI-8226 leukemia
  GI50: 3.49 µM
  TGI: 17.7 µM
SF-268 CNS
  GI50: 16.5 µM
  TGI: 49.1 µM
SF-295 CNS
  GI50: 5.38 µM
  TGI: 28.5 µM
SF-539 CNS
  GI50: 8.69 µM
  TGI: 24.9 µM
SK-MEL-2 melanoma
  GI50: 14.7 µM
  TGI: 30.5 µM
SK-MEL-28 melanoma
  GI50: 11.9 µM
  TGI: 26.6 µM
SK-MEL-5 melanoma
  GI50: 4.45 µM
  TGI: 16.7 µM
SK-OV-3 ovarian
  GI50: 15.1 µM
  TGI: 30.6 µM
SN12C renal
  GI50: 16.4 µM
  TGI: 52.6 µM
SNB-19 CNS
  GI50: 16.2 µM
  TGI: 35.6 µM
SNB-75 CNS
  GI50: 16 µM
  TGI: 36 µM
SR leukemia
  GI50: 2.35 µM
  TGI: 8.99 µM
SW-620 colon
  GI50: 3.33 µM
  TGI: 11.5 µM
T-47D breast
  GI50: 5.34 µM
  TGI: 22.4 µM
TK-10 renal
  GI50: 13.1 µM
  TGI: 29.1 µM
U251 CNS
  GI50: 4.62 µM
  TGI: 19.6 µM
UACC-257 melanoma
  GI50: 11.2 µM
  TGI: 24.4 µM
UACC-62 melanoma
  GI50: 2.39 µM
  TGI: 6.88 µM
UO-31 renal
  GI50: 18.3 µM
  TGI: 78.1 µM
